Data as given in US12274898B2, “Substituted benzodiazepines as antibody-drug conjugates” (priority 2018, dated 2025).
Non-standard residues stand in square brackets, D forms with d. Residues, ends and D or L forms follow the SMILES beside them. Dolaproine = CO[C@@H]([C@@H]1CCCN1)[C@@H](C)C(=O)O; Dil = CC[C@H](C)[C@H](NC)[C@@H](CC(=O)O)OC; NMeV = CN[C@H](C(=O)O)C(C)C

What was measured:
[1] = Solubility test: relative solubility by retention time on analytical HPLC; format: physicochemical; details: HPLC retention times under acidic (0.1% TFA); RP-C18, 5→95% ACN in water over 15 minutes; measure of relative solubility
Description: A solubility study was conducted to check the relative solubility of D-102, D-103, D-104, D-105, D-106, and D-107 on the retention time using analytical HPLC.

NCI-N87 cancer cells [2] = assay: In vitro analysis of benzodiazepine dimer derivatives, cell viability by MTT assay; format: cell-based; details: 6 days incubation, sigmoidal dose-response fit
Description: NCI-N87 cancer cells were seeded into 24-well plates at 25×10^3 cells/1 mL medium/well. The plates were incubated for 24 hours at 37° C. in a humidified 5% CO2-in-air atmosphere. Benzodiazepine dimer derivatives were dissolved initially in DMSO at a concentration of 10 mM. Serial dilutions were made in DMSO. The series of compound dilutions in DMSO were added to triplicate wells of 24-well plates at 5 μL per well. Three wells on each individual plate received 5 μL of DMSO without compound as controls. The final concentration of DMSO per well was 0.5%. The plates were incubated for 6 days at 37° C. in a humidified 5% CO2-in-air atmosphere. Cell viability was determined by the MTT assay and IC50 was generated using a sigmoidal dose-response nonlinear regression curve fit (GraphPad Software Inc.). Results thereof are shown in FIG. 1, FIG. 2, FIG. 3, and Table 2.

NCI-N87 cancer cells [3] = assay: In vitro analysis of protein-drug conjugates (cell cytotoxicity of antibody-drug conjugate), MTT assay; format: cell-based; details: ADCs, 6 days incubation
Description: NCI-N87cancer cells were seeded in 96-well plates at a density 5000 cells per well in 100 μL of medium, and cultured for 24 hours. The four compounds ADCs in Example 77 were treated by serial dilutions of 1:4 from 50 nM to 0.0003 nM, and the antibody drug conjugate T-DM1 was treated by serial dilutions of 1:4 from 50 nM to 0.0007 nM. The series of compound dilutions in DMSO were added to triplicate wells of […] at 5 μL per well. Three wells on each individual plate received 5 μL of DMSO without compound as controls. The final concentration of DMSO per well was 0.5%. The plates were incubated for 6 days at 37° C. in a humidified 5% CO2-in-air atmosphere. Cell viability was determined by the MTT assay and IC50 was generated using a sigmoidal dose-response nonlinear regression curve fit (GraphPad software Inc.)
Results of in vitro analysis of compounds T-1-AB, T-2-AB, T-3-AB, and T-4-AB, are shown in FIG. 4, FIG. 5, FIG. 6, FIG. 7, and Table 4.

Row | Compound | Retention time [1] [min] | IC50 (NCI-N87 cancer cells [2]; Homo sapiens, 144 h) [nM] | IC50 (NCI-N87 cancer cells [3]) [nM] | IC50 (NCI-N87 cancer cells [2]) [nM]
1 | COc1cc2c(cc1OCc1cc(O)cc(COc3cc4c(cc3OC)C(=O)N3Cc5ncn(C)c5C[C@H]3C=N4)c1)N=C[C@@H]1Cc3ccccc3CN1C2=O [Compound D-105] | 8.05 | 0.933 ± 0.344 | – | –
2 | COc1cc2c(cc1OCc1cc(COc3cc4c(cc3OC)C(=O)N3Cc5ccccc5C[C@H]3C=N4)cc(CN(C)C)c1)N=C[C@@H]1Cc3ccccc3CN1C2=O [Ref-1, reference compound] | 9.30 | 0.013 ± 0.003 | – | –
3 | COc1cc2c(cc1OCc1cc(COc3cc4c(cc3OC)C(=O)N3Cc5cc(Br)sc5C[C@H]3C=N4)cc(CN(C)C)c1)N=C[C@@H]1Cc3sc(Br)cc3CN1C2=O [Compound D-109] | – | 0.025 ± 0.01 | – | –
4 | COc1cc2c(cc1OCc1cc(O)cc(COc3cc4c(cc3OC)C(=O)N3Cc5c(n(C)c[n+]5C)C[C@H]3C=N4)c1)N=C[C@@H]1Cc3c([n+](C)cn3C)CN1C2=O [Compound D-110] | – | 588 ± 223 | – | –
5 | COc1cc2c(cc1OCc1cc(COc3cc4c(cc3OC)C(=O)N3Cc5ccoc5C[C@H]3C=N4)cc(CN(C)C)c1)N=C[C@@H]1Cc3occc3CN1C2=O [Compound D-107] | 8.60 | 0.013 ± 0.002 | – | –
6 | COc1cc2c(cc1OCc1cc(O)cc(COc3cc4c(cc3OC)C(=O)N3Cc5ncn(C)c5C[C@H]3C=N4)c1)N=C[C@@H]1Cc3c(ncn3C)CN1C2=O [Compound D-102] | 6.50 | 4.99 ± 0.785 | – | –
7 | COc1cc2c(cc1OCc1cc(COc3cc4c(cc3OC)C(=O)N3Cc5sccc5C[C@H]3C=N4)cc(CN(C)C)c1)N=C[C@@H]1Cc3ccsc3CN1C2=O [Compound D-108] | – | 0.008 ± 0.001 | – | –
8 | T-DM1 | – | – | 0.213 ± 0.12 | –
9 | CC[C@H](C)[C@@H]([C@@H](CC(=O)N1CCC[C@H]1[C@H](OC)[C@@H](C)C(=O)N[C@@H](Cc1ccccc1)C(=O)OC)OC)N(C)C(=O)[C@@H](NC(=O)[C@@H](NC)C(C)C)C(C)C [MMAF-OMe, reference compound] (H-[NMeV]V[Dil][Dolaproine]F-OMe) | – | – | – | 0.182
10 | COc1ccc(C2=CN3C(=O)c4cc(OC)c(OCc5cc(COc6cc7c(cc6OC)C(=O)N6Cc8ccsc8C[C@H]6C=N7)cc(CN(C)C)c5)cc4N=C[C@@H]3C2)cc1 [Compound D-114] | – | 1.89 | – | –
11 | COc1cc2c(cc1OCc1cc(COc3cc4c(cc3OC)C(=O)N3Cc5ncn(C)c5C[C@H]3C=N4)cc(CN(C)C)c1)N=C[C@@H]1Cc3c(ncn3C)CN1C2=O [Compound D-106] | 6.02 | 28.9 ± 15 | – | –
12 | COc1cc2c(cc1OCc1cc(O)cc(COc3cc4c(cc3OC)C(=O)N3Cc5c(ncn5C)C[C@H]3C=N4)c1)N=C[C@@H]1Cc3ncn(C)c3CN1C2=O [Compound D-101] | – | 17.8 ± 6.6 | – | –
13 | COc1cc2c(cc1OCc1cccc(COc3cc4c(cc3OC)C(=O)N3Cc5ccccc5C[C@H]3C=N4)c1)N=C[C@@H]1Cc3ccccc3CN1C2=O [Ref-2, reference compound] | – | 0.0089 ± 0.002 | – | –
14 | COc1cc2c(cc1OCc1cc(COc3cc4c(cc3OC)C(=O)N3Cc5ccsc5C[C@H]3C=N4)cc(CN(C)C)c1)N=C[C@@H]1Cc3sccc3CN1C2=O [Compound D-104] | 8.98 | 0.013 ± 0.003 | – | –
15 | COc1cc2c(cc1OCc1cc(O)cc(COc3cc4c(cc3OC)C(=O)N3Cc5ccsc5C[C@H]3C=N4)c1)N=C[C@@H]1Cc3sccc3CN1C2=O [Compound D-103] | 9.75 | 0.0472 ± 0.01 | – | –
16 | COc1cc2c(cc1OCc1cc(O)cc(COc3cc4c(cc3OC)C(=O)N3Cc5ccccc5C[C@H]3C=N4)c1)N=C[C@@H]1Cc3ccccc3CN1C2=O [Ref-3, reference compound] | 10.00 | 0.025 ± 0.018 | – | –
